Experimental data from article PMC6906431, “Selective small molecule PARG inhibitor causes replication fork stalling and cancer cell death” (Nature Communications, 2019).

Legend:
[1] = tested on: MDA-MB-231 PARG knockdown (PARG-KD) cells; experiment: Cellular PARylation, anti-PAR immunoblot; assay type: cell-based, human
Experimental: Fig. 6 Selective inhibition of PARG by xanthine derivative JA2131. a Clonogenic survival assays of PC3, MDA-MB-231, and MCF-7 cells treated with PARGi. Cells were treated with either DMSO or 10 µM JA2131 for 2 h, irradiated with 3 Gy (MDA-MB-231 and MCF-7), 7 Gy (PC3) IR and grown for ~2 weeks, then colonies were fixed with methanol and stained with crystal violet. The results of three independent experiments are shown. Error bars = the standard error of the mean (SEM). b dose-response of JA2131 in MDA-MB-231 cells with and without IR. Cells were treated with designated concentrations of JA2131 for 2 h and then either left untreated or exposed to 3 Gy IR and allowed to recover for 1 h before lysis. Total protein was immunoblotted with anti-PAR antibody (upper panel), stripped and reprobed with anti-PCNA as a loading control. c MDA-MB-231 cells with stable scrambled shRNA (WT) or stable PARG shRNA, knockdown (KD), were treated with 5 μM JA2131 for 2 h, lysed and then total lysates were immunoblotted for anti-PAR (upper panel) followed by anti-PARG (upper middle panel), anti-PARP1 (lower middle panel) and anti-actin (bottom panel) antibody. […] Stable cells with scramble shRNA (control) and shPARG (PARG-KD) cells were treated with an increasing concentration of JA2131 for growth inhibitory IC50 determination. The data was normalized against 100% survival at the lowest inhibitor concentration. Error bars show the percent coefficient of variation. Equivalent concentrations of DMSO were used as a negative control. e The cytotoxicity of JA2131 along with PDD, Veliparib and Doxorubicin against MRC-5 cells. Error bars show the percent coefficient of variation. f CETSA for in-cell JA2131 target engagement. Normalized anti-PARG western blot intensities of three independent experiments were fitted as above and the estimated aggregation temperature (Tagg) is shown in the tabulated insert. Source Data are provided as a Source Data file.
Using shRNA, next, we generated a stable MDA-MB-231 PARG knockdown (PARG-KD) cell-line (Supplementary Fig. 10). We compared PARGi JA2131-induced PARylation in PARG-KD and control cells. We reasoned that PARG-KD cells would show a reduced response to a selective PARGi as the stable PARG-KD cells would have to adopt a PARG-independent survival mechanism. MDA-MB-231 control cells and PARG-KD cells were treated with JA2131, then total cell lysates were subjected to immunoblotting with anti-PAR antibody, followed by immunodetection for anti-PARG, PARP1 and Actin antibody (Fig. 6c). […] Dose-response curves comparing control and PARG-KD cells further validate the selective action of JA2131 on control cells expressing PARG, but not on the PARG-KD cells (Supplementary Fig. 12).
PC3, MDA-MB-231 cells were maintained in RPMI 1640, MCF-7 cells in Eagle’s Minimum Essential Medium (EMEM), MRC-5 cells in Eagle’s Minimum Essential Medium and Hela and U2OS cells in Dulbecco’s modified Eagle’s high glucose medium (DMEM) supplemented with 10% (vol/vol) fetal bovine serum (FBS) and 1% antibiotic/antimycotic (Lonza) in a humidified incubator with 10% CO2. All cell lines were purchased from ATCC and regularly checked for mycoplasma and cell authentication. SUM 149PT cells were cultured in F-12 Hams (Gibco) supplemented with 5% fetal bovine serum, insulin, and hydrocortisone. […] Cells were fixed with methanol (100%), stained with crystal violet and analyzed using a GelCount instrument (Oxford Optronix Ltd). […]

HeLa cells = experiment: DNA fiber assay, replication fork progression; assay type: cell-based, human; conditions: JA2131 10 µM
Source text: Normalized % viabilities are plotted against log concentration. Error bars show the percent coefficient of variation. […] Mann-Whitney test was used to generate the p-value. The DNA spread assay is the representation of two independently repeated experiments. Source Data are provided as a Source Data file.

hPARP1 = hPARP1 (Homo sapiens, UniProt P09874); experiment: In vitro PARP1 auto-PARylation; conditions: inhibitor 25 – 100 µM; 25 µM NAD+
[2] = tested on: PARPi resistant SUM149PT cells; experiment: PAR and gH2AX high-content imaging in PARPi-resistant cells; assay type: cell-based, human; conditions: 10 µM JA2131 2 h; 3Gy IR
Experimental: PARG inhibitors as potential therapeutic option for PARP1 inhibitor resistant cancers.
As PARP1 inhibitors are now widely used in the clinic but frequently resistance is emerging, we evaluated if PARG may be a therapeutic option for patients who become PARP1 inhibitor resistant. We therefore generated PARP1 inhibitor resistant SUM149PT triple negative breast cancer cell-lines through with 100 nM talazoparib for 5 constitutive days and then with 15-50 nM talazoparib until resistant cells grew into clones. The resulting resistant cell clones were propagated and expanded to generate PARP inhibitor resistant SUM149PT derivative cells that no longer responded to PARP1i treatment. We then investigated whether the PARP resistant breast cancer cells would response to the PARG inhibitors. Four PARPi resistant SUM149PT cell clones together with wild type cells were treated with JA2131. PAR accumulation and gH2AX foci formation were analyzed by high content imaging (Fig. S6). Treatment of cells with […]
immu n o fluorescence signals. The PAR accumulation and gH2AX foci formation was very similar […]
PARP1 resistant patients.
Supplementary Fig. 17: PARPi resistant cells respond to JA2131 PARGi. (a) PARGi sensitizes PARP1i resistant breast cancer cells. […]

Sequence of hPARP1 (P09874 whole entry): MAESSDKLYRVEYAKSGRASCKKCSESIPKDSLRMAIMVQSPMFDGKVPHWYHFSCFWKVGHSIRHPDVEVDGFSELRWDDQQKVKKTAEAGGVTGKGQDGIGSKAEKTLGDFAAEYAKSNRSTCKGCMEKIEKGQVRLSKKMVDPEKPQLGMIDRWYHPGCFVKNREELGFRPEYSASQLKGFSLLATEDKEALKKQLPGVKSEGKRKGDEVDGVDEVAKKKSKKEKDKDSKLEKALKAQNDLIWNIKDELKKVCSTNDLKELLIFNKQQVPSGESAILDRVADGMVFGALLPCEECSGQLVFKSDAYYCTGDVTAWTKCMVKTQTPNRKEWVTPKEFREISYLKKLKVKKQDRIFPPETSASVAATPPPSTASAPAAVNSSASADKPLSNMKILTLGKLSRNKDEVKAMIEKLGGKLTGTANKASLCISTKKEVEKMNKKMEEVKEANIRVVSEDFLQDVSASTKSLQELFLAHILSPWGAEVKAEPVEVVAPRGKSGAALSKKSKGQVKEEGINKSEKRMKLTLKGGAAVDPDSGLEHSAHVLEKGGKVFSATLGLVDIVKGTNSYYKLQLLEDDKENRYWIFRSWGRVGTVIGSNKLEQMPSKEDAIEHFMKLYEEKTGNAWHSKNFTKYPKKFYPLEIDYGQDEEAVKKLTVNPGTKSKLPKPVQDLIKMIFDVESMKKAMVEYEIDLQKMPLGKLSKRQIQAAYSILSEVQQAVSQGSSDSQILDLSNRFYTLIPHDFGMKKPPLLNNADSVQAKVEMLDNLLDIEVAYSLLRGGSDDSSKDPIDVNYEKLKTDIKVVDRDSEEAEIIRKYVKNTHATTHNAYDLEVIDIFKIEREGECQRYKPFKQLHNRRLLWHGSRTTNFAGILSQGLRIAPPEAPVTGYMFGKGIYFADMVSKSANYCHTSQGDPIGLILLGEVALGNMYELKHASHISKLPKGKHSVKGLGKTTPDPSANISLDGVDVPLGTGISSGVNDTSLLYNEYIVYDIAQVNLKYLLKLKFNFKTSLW

`Cn1c(=S)c2[nH]c(SCCN3CCOCC3)nc2n(C)c1=O` [JA2131] was tested, and the “anti-PAR western blot band, Normalized” value ([1]; 5 μM JA2131 2 h, Ci-DMSO = 1) was 8.898, the “anti-PAR western blot band, Intensity inversion” value ([1]; 5 μM JA2131 2 h, ImageJ) was 0.00723 and the “anti-PAR western blot band, Neg. substracted” value ([1]; 5 μM JA2131 2 h, ImageJ) was 0.001922. For the same compound, the “anti-PAR western blot band, mean int.” value ([1]; 5 μM JA2131 2 h, ImageJ) was 138.32, the “PAR accumulation after treatment” value ([1]; 5 μM, 2 h) was “did not affect the level of PAR accumulation” and the “average IdU tract” value (HeLa cells; 2 h pretreatment, no genotoxic stress) was 6.0 μm. For the same compound, the “average IdU tract length” value (HeLa cells; low-dose hydroxyurea) was 5.0 μm, the “inhibition of PARP1 activation (PAR synthesis)” value (hPARP1) was “did not inhibit PARP1 activation up to 100 μM” and the “PAR accumulation and gH2AX staining” value [2] was “increased PAR accumulation as well as gH2AX staining”.
